Series [1] can be described thus: Water content and solid form of amorphous cinacalcet HCl after exposure to humidity (KF titration, PXRD). The following applies: 100 percent relative humidity; for Solid form by PXRD after exposure to humidity (physical stability): hydrochloride. In kind it is physicochemical. Here is the method:
Powder X-Ray powder diffraction data were obtained using a SCINTAG powder X-Ray diffractometer model X'TRA equipped with a solid state detector and a variable gonimeter. Copper radiation of 1.5418 Å was used. A round standard aluminum sample holder with round zero background, and cavity of 25(diameter)*0.5(dept) mm. Scanning parameters were in the range of 2-40°2θ and a continuous scan rate of 3°/min.
100 mg amorphous cinacalcet HCl was spread as a thin layer, and exposed to 100 percent relative humidity for 8 days. The sample was than tested by PXRD and by Karl Fischer (“KF”) titration. Amorphous cinacalcet HCl was obtained with water content of 1.4 percent.

A short description of series [2]: Stability of amorphous cinacalcet HCl on storage at ambient temperature (PXRD). It counts as physicochemical. The following applies: stored at ambient temperature in a closed bottle for 2 months, hydrochloride. Here is the method:
Powder X-Ray powder diffraction data were obtained using a […] powder X-Ray diffractometer model X'TRA equipped with a solid state detector and a variable gonimeter. Copper radiation of 1.5418 Å was used. A round standard aluminum sample holder with round zero background, and cavity of 25(diameter)*0.5(dept) mm. Scanning parameters were in the range of 2-40°2θ and a continuous scan rate of 3°/min.

As to `C[C@@H](NCCCc1cccc(C(F)(F)F)c1)c1cccc2ccccc12.Cl` [Amorphous Cinacalcet HCl, Cinacalcet hydrochloride], the “Water content by Karl Fischer titration after exposure to humidity” value in series [1] (100 mg spread as a thin layer, 8 days) is 1.4%. The “Solid form by PXRD after exposure to humidity (physical stability)” value in series [1] (8 days, listed as Amorphous cinacalcet) was “stable at high humidity levels”; in series [1] (8 days, listed as amorphous cinacalcet HCl), “Amorphous”. In series [1] (as shown in Example 2), the Hygroscopicity result is on record as “non-hygroscopic”. Besides, the “Solid form by PXRD after storage (physical stability)” value in series [2] is “amorphous content”; in series [2] (listed as Amorphous cinacalcet), “stable under prolonged storage”.

These data come from patent publication US7368606B2, “Amorphous cinacalcet hydrochloride and preparation thereof” (Teva Pharmaceutical Industries Ltd., priority 2005, dated 2008).
